Data set [1] can be described thus: CC50 assay (CellTiter-Glo) in Huh-7 HCV replicon cells. The class given is cell-based, human. The conditions noted are these: human, 3 days incubation, CellTiter-Glo readout. As for the experimental part:
(§1) The anti-HCV activity of the pyrido[3,2-d]pyrimidine derivatives of this invention was tested in a human hepatoma Huh-7 cell line harboring a HCV replicon. The assay comprised the following steps:
(§2) Step 1: Compound Preparation and Serial Dilution
(§3) • 1. for water soluble pyrido[3,2-d]pyrimidine derivatives, a volume of 500 μL of solution in cell media (DMEM, 10% FBS, P/S, L-Glutamine) was prepared with a concentration being twice the concentration of the starting final serial dilution concentration. A volume of 150 μL of the solution was added to the pre-specified wells in column 1 of a 96-well cell culture plate (PerkinElmer, white plate, cat. #6005181, for EC50 assay; black plate, cat. #6005182 for CC50 assay). The rest of the plate, columns 2-12, was filled with 100 μL of cell media. The plate was then placed on a Precision 2000 Workstation to start the serial dilution. Compounds were diluted three times each step from column 1 to column 10. Column 11 was used as a blank control (no compound added). • 2. for pyrido[3,2-d]pyrimidine derivatives requiring DMSO to dissolve, serial dilution is performed in 50% DMSO in a 384-well plate. A solution containing a compound at 100-fold concentration of the starting final serial dilution concentration was prepared in 50% DMSO and added to the pre-specified wells in column 1 of a polypropylene 384-well plate. The plate was then placed on a Precision 2000 Workstation to start the serial dilution. After the serial dilution, a volume of 2 μL of the solution was transferred from the 384-well plate to a 96-well cell culture plate containing 100 μL of cell media on a Biomek FX Workstation. The DMSO concentration in the final assay condition was 0.5% after cells are added to the plate and the total volume in each well is brought to 200 μL.
(§4) Step 2: to each well of the serial dilution plate prepared above, 100 μL of cell media containing 6000 suspended Huh-7 HCV replicon cells was added with a Multidrop workstation. The plates were incubated for 3 days at 37° C. with 5% CO2.
(§5) • a) for the EC50 assay, the media in a 96-well cell culture plate was aspirated with a Biotek EL405 plate-washer. A volume of 200 μL of a solution containing a 1:1 mixture of cell-lysis buffer (Promega, Luciferase Cell Culture Lysis 5× Reagent, cat. #E1531) and luciferase substrate solution (Promega, Luciferase Assay, cat.#E4550) was added to each well of the plate with Multidrop. The plate was incubated for 30 minutes at room temperature before the luminescence signal was measured with a TopCount plate-reader. • b) for the CC50 assay, a volume of 100 μL of pre-mixed CellTiter-Glo (Promega, cat.#G7572) solution is added directly to the cell culture in each well of the plate and the luminescence signal is measured with a TopCount plate-reader after 10 minutes of incubation at room temperature.
(In general: Cellular ATP, detected with luciferase, serves as a proxy for viable cell number.)

Data set [2] relates to HCV replicon in human hepatoma Huh-7 cell line. Kind of data set: Anti-HCV replicon assay (EC50, luciferase). The class given is cell-based. The conditions noted are these: Hepatitis C virus, Huh-7, 72 h. As for the experimental part: as §1, §2, §3, §4, §5
In general terms: In antiviral work, replicon cells carry a viral genome segment that copies itself.

The structures appear in SMILES notation.

Take `CCOc1nc(NCc2cc(F)c(F)c(F)c2)nc2ccc(-c3ccc(F)cc3)nc12` [Example 46, [4-Ethoxy-6-(4-fluoro-phenyl)-pyrido[3,2-d]pyrimidin-2-yl]-(3,4,5-trifluoro-benzyl)-amine]: the CC50 – broadly, the concentration that lowers cell viability or growth by half – at 3 days in data set [1] lay within 5000 to 25000 nM. Also, the half-maximal effective concentration (EC50) (usually the concentration needed to bring the measured effect to its halfway point) in data set [2] was under 100 nM.
With `CCOc1nc(NCc2cccc(F)c2)nc2ccc(-c3ccc(F)cc3)nc12` [Example 47, [4-Ethoxy-6-(4-fluoro-phenyl)-pyrido[3,2-d]pyrimidin-2-yl]-(3-fluoro-benzyl)-amine], the 50% cytotoxic concentration (CC50) at 3 days in data set [1] is 5000 to 25000 nM. In data set [2], this compound showed an EC50 of under 100 nM.
The like results for `CCOc1nc(NCc2cccc(Cl)c2F)nc2ccc(-c3ccc(F)cc3)nc12` [Example 48, (3-Chloro-2-fluoro-benzyl)-[4-ethoxy-6-(4-fluoro-phenyl)-pyrido[3,2-d]pyrimidin-2-yl]-amine] were, in that order, over 25000 nM and under 100 nM.
On to `CC(C)Nc1nc(Nc2ccc(F)cc2)nc2ccc(-c3ccc(F)cc3)nc12` [Example 49, 6-(4-Fluoro-phenyl)-N4-isopropyl-N2-(4-fluoro-phenyl)-pyrido[3,2-d]pyrimidine-2,4-diamine], for which, in data set [1], the CC50 at 3 days is over 25000 nM. This compound also displayed an EC50 in data set [2] of 250 to 2000 nM.
For `CC(C)Nc1nc(Nc2ccccc2)nc2ccc(-c3ccc(F)cc3)nc12` [Example 50, 6-(4-Fluoro-phenyl)-N4-isopropyl-N2-phenyl-pyrido[3,2-d]pyrimidine-2,4-diamine], in that order: over 25000 nM and 250 to 2000 nM.
The like results for `CN(C)c1nc(NCc2ccc(F)cc2)nc2ccc(-c3ccc(F)cc3)nc12` [Example 51, 6-(4-Fluoro-phenyl)-N4-(N,N-dimethyl)-N2-(4-fluoro-benzyl)-pyrido[3,2-d]pyrimidine-2,4-diamine] were, in that order, over 25000 nM and 250 to 2000 nM.
For `Cc1ccc(Nc2nc(NC(C)C)c3nc(-c4ccc(F)cc4)ccc3n2)nn1` [Example 52, 6-(4-Fluoro-phenyl)-N4-isopropyl-N2-(6-methyl-pyridazin-3-yl)-pyrido[3,2-d]pyrimidine-2,4-diamine], in that order: 5000 to 25000 nM and 250 to 2000 nM.
`CC(C)Nc1nc(NCc2ccccn2)nc2ccc(-c3ccc(F)cc3)nc12` [Example 53, 6-(4-Fluoro-phenyl)-N4-isopropyl-N2-pyridin-2-ylmethyl-pyrido[3,2-d]pyrimidine-2,4-diamine]: the CC50 at 3 days in data set [1] lay in the range of 5000 to 25000 nM. In data set [2], this compound registered a concentration giving a half-maximal response (EC50) of 100 to 250 nM.
For `CC(C)Nc1nc(NCc2cccnc2)nc2ccc(-c3ccc(F)cc3)nc12` [Example 54, 6-(4-Fluoro-phenyl)-N4-isopropyl-N2-pyridin-3-ylmethyl-pyrido[3,2-d]pyrimidine-2,4-diamine], in that order: 5000 to 25000 nM and 100 to 250 nM.
The like results for `CC(C)Nc1nc(NCC(F)(F)F)nc2ccc(-c3ccc(F)cc3)nc12` [Example 55, 6-(4-Fluoro-phenyl)-N4-isopropyl-N2-(2,2,2-trifluoro-ethyl)-pyrido[3,2-d]pyrimidine-2,4-diamine] were, in that order, 5000 to 25000 nM and under 100 nM.
`CC(C)Nc1nc(NCCN2CCOCC2)nc2ccc(-c3ccc(F)cc3)nc12` [Example 56, 6-(4-Fluoro-phenyl)-N4-isopropyl-N2-(2-morpholin-4-yl-ethyl)-pyrido[3,2-d]pyrimidine-2,4-diamine] had a CC50 at 3 days in data set [1] of 5000 to 25000 nM. Moreover, the EC50 in data set [2] lay in the range of 250 to 2000 nM.
The like results for `CC(C)Nc1nc(NCC(F)F)nc2ccc(-c3ccc(F)cc3)nc12` [Example 57, N2-(2,2-Difluoro-ethyl)-6-(4-fluoro-phenyl)-N4-isopropyl-pyrido[3,2-d]pyrimidine-2,4-diamine] were, in that order, under 5000 nM and 250 to 2000 nM.
Regarding `COCCNc1nc(NC(C)C)c2nc(-c3ccc(F)cc3)ccc2n1` [Example 58, 6-(4-Fluoro-phenyl)-N4-isopropyl-N2-(2-methoxy-ethyl)-pyrido[3,2-d]pyrimidine-2,4-diamine], in data set [1], the CC50 at 3 days is under 5000 nM. The compound further came in with an EC50 in data set [2] of 250 to 2000 nM.

The record behind these values is US8729089B2 (Gilead Sciences, Inc., priority 2006, dated 2014).
